Tested on: Acinetobacter baumannii isolates
Assay: Antimicrobial susceptibility test, disc diffusion method (CLSI M100-S24)
Format: cell-based
Design: key to Inhibition zone: “NZ” indicated that no zone of inhibition was observed
Conditions: for susceptibility category: ATM disc; for Inhibition zone: disc diffusion
Method: A total of 33 non-duplicate, non-consecutive clinical isolates of Multi-Drug Resistant (MDR) Acinetobacter baumannii were collected from burn wards (“AB1-AB33”). Acinetobacter baumannii ATCC BAA 747 and Pseudomonas aeruginosa ATCC 27853 were used as control strains. The isolates were stored at −80° C. in trypticase soy broth containing 20% glycerol.
Antimicrobial susceptibility tests of the collection of isolates were conducted using the disc diffusion method. The experiment was performed according to the recommendations and guidelines of Clinical Laboratory Standard Institutes (CLSI M100-S24; 2014). Clinical and Laboratory Standards Institute (CLSI), “Performance standards for antimicrobial susceptibility testing; twenty-fourth informational supplement,” Document M100-S24, Clinical and Laboratory Standards Institute (CLSI), Wayne, Pa., USA, 2014.
A panel of commercial antibiotic discs (Amoxicillin (AMX), Amoxicillin/clavulanic acid (AMX/CLA), Piperacillin (PIP), Piperacillin/Tazobactam (PIP/TAZ), Ceftazidime (CAZ), Cefotaxime (CTX), Cefepime (FEP), Cefoxitin (FOX), Aztreonam (ATM), Imipenem (IP), Gentamicin (GEN), Amikacin (AK), Neomycin (NEO), Levofloxacin (LEV), Chloramphenicol (CHL), Tetracycline (TET), sulfamethoxazole/trimethoprim (SUL/TRI) was used for susceptibility testing. All commercial antibiotic discs were purchased from BBL (Becton Dickinson, USA).
Forty grams of Mueller-Hinton Agar (MHA) were suspended in 1 Liter distilled water and then boiled to dissolve the powder completely. The medium was sterilized by autoclaving at 121° C. for 15 min. After autoclaving, the medium was cooled to 45° C. and 25 mL of molten agar media was poured into sterile Petri dishes (90 mm diameter) to give a depth of about 4 mm. The surface of the agar was dried to remove excess moisture before use. The plates were stored at 4-8° C. in sealed plastic bags if not used immediately.
The inoculum suspension was prepared by selecting three to five morphologically similar colonies from overnight growth (16-24 h of incubation) on blood agar medium. […] The suspension density was measured using a UV spectrophotometer calibrated with a 0.5 McFarland standard. The density of the suspension was adjusted to McFarland 0.5 by addition of saline or more microorganisms. The adjusted inoculum suspension was used within 60 min of preparation.
A sterile cotton swab was dipped into the bacterial suspension and the excess fluid was removed by turning the swab against the inside wall of the tube to avoid over-inoculation of plates. The inoculum was spread evenly over the entire surface of the agar plate by swabbing in three directions.
The predetermined panel of antimicrobial disks was applied firmly on the inoculated Mueller-Hinton agar surface within 15 min of inoculation of the plates by a disc dispenser device. A maximum of six disks were accommodated on a 90-mm circular plate.
Within 15 min of application of antimicrobial disks, the plates were inverted and incubated aerobically at 35-37° C. for 18-20 h.
After incubation, inhibition zones were measured at the point where no obvious growth is detected by the unaided eye when the plate is held about 30 cm from the eye. Inhibition zone diameters were measured to the nearest millimeter with a ruler. The plates were read from the back of the plate with reflected light against a dark background. Zone diameters were interpreted and categorized as susceptible “S”, intermediate “I”, or resistant “R” according to the CLSI clinical breakpoint tables (see Table 1 and Table 2).

C[C@H]1[C@H](NC(=O)/C(=N\OC(C)(C)C(=O)O)c2csc(N)n2)C(=O)N1S(=O)(=O)O [ATM, Aztreonam]
susceptibility category (isolate AB1): R (Resistant ≤15)
Inhibition zone (isolate AB1): NZ
susceptibility category (isolate AB2): R (Resistant ≤15)
Inhibition zone (isolate AB2): NZ
susceptibility category (isolate AB3): R (Resistant ≤15)
Inhibition zone (isolate AB3): NZ
susceptibility category (isolate AB4): R (Resistant ≤15)
Inhibition zone (isolate AB4): NZ
susceptibility category (isolate AB5): R (Resistant ≤15)
Inhibition zone (isolate AB5): NZ
susceptibility category (isolate AB6): S (Sensitive ≥22)
Inhibition zone (isolate AB6): 20 mm
susceptibility category (isolate AB7): R (Resistant ≤15)
Inhibition zone (isolate AB7): NZ
susceptibility category (isolate AB8): R (Resistant ≤15)
Inhibition zone (isolate AB8): NZ
susceptibility category (isolate AB9): R (Resistant ≤15)
Inhibition zone (isolate AB9): NZ
susceptibility category (isolate AB10): R (Resistant ≤15)
Inhibition zone (isolate AB10): 13 mm
susceptibility category (isolate AB11): R (Resistant ≤15)
Inhibition zone (isolate AB11): NZ
susceptibility category (isolate AB12): R (Resistant ≤15)
Inhibition zone (isolate AB12): NZ
susceptibility category (isolate AB13): R (Resistant ≤15)
Inhibition zone (isolate AB13): NZ
susceptibility category (isolate AB14): R (Resistant ≤15)
Inhibition zone (isolate AB14): NZ
susceptibility category (isolate AB15): R (Resistant ≤15)
Inhibition zone (isolate AB15): 11 mm
susceptibility category (isolate AB16): S (Sensitive ≥22)
Inhibition zone (isolate AB16): 33 mm
susceptibility category (isolate AB17): R (Resistant ≤15)
Inhibition zone (isolate AB17): 15 mm
susceptibility category (isolate AB18): R (Resistant ≤15)
Inhibition zone (isolate AB18): 10 mm
susceptibility category (isolate AB19): R (Resistant ≤15)
Inhibition zone (isolate AB19): 8 mm
susceptibility category (isolate AB20): R (Resistant ≤15)
Inhibition zone (isolate AB20): NZ
susceptibility category (isolate AB21): R (Resistant ≤15)
Inhibition zone (isolate AB21): 7 mm
susceptibility category (isolate AB22): R (Resistant ≤15)
Inhibition zone (isolate AB22): NZ
susceptibility category (isolate AB23): R (Resistant ≤15)
Inhibition zone (isolate AB23): NZ
susceptibility category (isolate AB24): R (Resistant ≤15)
Inhibition zone (isolate AB24): NZ
susceptibility category (isolate AB25): R (Resistant ≤15)
Inhibition zone (isolate AB25): 13 mm
susceptibility category (isolate AB26): R (Resistant ≤15)
Inhibition zone (isolate AB26): 12 mm
susceptibility category (isolate AB27): R (Resistant ≤15)
Inhibition zone (isolate AB27): NZ
susceptibility category (isolate AB28): R (Resistant ≤15)
Inhibition zone (isolate AB28): NZ
susceptibility category (isolate AB29): R (Resistant ≤15)
Inhibition zone (isolate AB29): NZ
susceptibility category (isolate AB30): R (Resistant ≤15)
Inhibition zone (isolate AB30): 9 mm
susceptibility category (isolate AB31): R (Resistant ≤15)
Inhibition zone (isolate AB31): NZ
susceptibility category (isolate AB32): R (Resistant ≤15)
Inhibition zone (isolate AB32): 8 mm
susceptibility category (isolate AB33): R (Resistant ≤15)
Inhibition zone (isolate AB33): 9 mm

Gentamicin
Inhibition zone (isolate AB1): 24 mm
Inhibition zone (isolate AB2): 20 mm
Inhibition zone (isolate AB3): 24 mm
Inhibition zone (isolate AB4): 22 mm
Inhibition zone (isolate AB5): 15 mm
Inhibition zone (isolate AB6): 26 mm
Inhibition zone (isolate AB7): NZ
Inhibition zone (isolate AB8): NZ
Inhibition zone (isolate AB9): 21 mm
Inhibition zone (isolate AB10): NZ
Inhibition zone (isolate AB11): NZ
Inhibition zone (isolate AB12): 12 mm
Inhibition zone (isolate AB13): NZ
Inhibition zone (isolate AB14): NZ
Inhibition zone (isolate AB15): 20 mm
Inhibition zone (isolate AB16): 18 mm
Inhibition zone (isolate AB17): 24 mm
Inhibition zone (isolate AB18): 17 mm
Inhibition zone (isolate AB19): 20 mm
Inhibition zone (isolate AB20): NZ
Inhibition zone (isolate AB21): 17 mm
Inhibition zone (isolate AB22): NZ
Inhibition zone (isolate AB23): NZ
Inhibition zone (isolate AB24): 19 mm
Inhibition zone (isolate AB25): 19 mm
Inhibition zone (isolate AB26): NZ
Inhibition zone (isolate AB27): 8 mm
Inhibition zone (isolate AB28): 20 mm
Inhibition zone (isolate AB29): 20 mm
Inhibition zone (isolate AB30): 20 mm
Inhibition zone (isolate AB31): 8 mm
Inhibition zone (isolate AB32): NZ
Inhibition zone (isolate AB33): 20 mm

CO[C@@]1(NC(=O)Cc2cccs2)C(=O)N2C(C(=O)O)=C(COC(N)=O)CS[C@@H]21 [FOX, Cefoxitin]
Inhibition zone (isolate AB1): NZ
Inhibition zone (isolate AB2): NZ
Inhibition zone (isolate AB3): NZ
Inhibition zone (isolate AB4): NZ
Inhibition zone (isolate AB5): NZ
Inhibition zone (isolate AB6): NZ
Inhibition zone (isolate AB7): NZ
Inhibition zone (isolate AB8): NZ
Inhibition zone (isolate AB9): NZ
Inhibition zone (isolate AB10): NZ
Inhibition zone (isolate AB11): NZ
Inhibition zone (isolate AB12): NZ
Inhibition zone (isolate AB13): NZ
Inhibition zone (isolate AB14): NZ
Inhibition zone (isolate AB15): NZ
Inhibition zone (isolate AB16): 22 mm
Inhibition zone (isolate AB17): NZ
Inhibition zone (isolate AB18): NZ
Inhibition zone (isolate AB19): NZ
Inhibition zone (isolate AB20): NZ
Inhibition zone (isolate AB21): NZ
Inhibition zone (isolate AB22): NZ
Inhibition zone (isolate AB23): NZ
Inhibition zone (isolate AB24): NZ
Inhibition zone (isolate AB25): NZ
Inhibition zone (isolate AB26): NZ
Inhibition zone (isolate AB27): NZ
Inhibition zone (isolate AB28): NZ
Inhibition zone (isolate AB29): NZ
Inhibition zone (isolate AB30): NZ
Inhibition zone (isolate AB31): 9 mm
Inhibition zone (isolate AB32): NZ
Inhibition zone (isolate AB33): NZ

Reference: patent US11617726B2, “Method for preventing, treating, or ameliorating a microbial infection” (priority 2018, dated 2023)
